Measured values from EPA's ToxRefDB 2.

How the values were obtained:
rat [1] = conditions: Carcinogenicity, Osborne-Mendel, Oral, Gavage/Intubation, dose end: 104 week, group: systemic
rat [2] = conditions: Carcinogenicity; sprague dawley; Oral; Gavage/Intubation; dose end: 105 week; group: systemic; systemic / clinical chemistry / [other] / [other] + systemic / organ weight / liver / relative to body weight + systemic / organ weight / …
mouse = conditions: Carcinogenicity; b6c3f1; Oral; Feed; dose end: 104 week; group: systemic; systemic / in life observation / body weight / body weight
dog [3] = conditions: Sub-acute repeat dose toxicity, beagle, Oral, Gavage/Intubation, dose end: 14 day, group: systemic
rat [4] = conditions: Sub-acute repeat dose toxicity, wistar, Oral, Gavage/Intubation, dose end: 28 day
primate [5] = conditions: Sub-acute repeat dose toxicity; Oral; Gavage/Intubation; dose end: 28 day; group: systemic; systemic / in life observation / clinical signs / defecation (diarrhea) + systemic / in life observation / food consumption / food …
dog [6] = conditions: Chronic toxicity, beagle, Oral, Feed, dose end: 2 year, group: systemic
rat [7] = conditions: Combined chronic toxicity/carcinogenicity, wistar, Oral, Feed, dose end: 104 week, group: systemic
rat [8] = conditions: Combined chronic toxicity/carcinogenicity, wistar, Oral, Feed, dose end: 104 week, group: systemic; remark: listed apart in the source
rat [9] = conditions: Multigenerational reproductive toxicity study, sprague dawley, Oral, Feed, dose end: 2 generation
rat [10] = conditions: Subchronic oral toxicity in rodents, wistar, Feed, dose end: 3 month, group: systemic
rat [11] = conditions: Prenatal developmental toxicity study, other, Oral, Gavage/Intubation, dose end: 15 GD
primate [12] = conditions: Sub-acute repeat dose toxicity; Injection; Intravenous; dose end: 5 day; group: systemic; systemic / in life observation / clinical signs / [other] + systemic / in life observation / clinical signs / compulsive biting or licking…
dog [13] = conditions: Sub-acute repeat dose toxicity, beagle, Injection, Intravenous, dose end: 5 day, group: systemic
rat [14] = conditions: Sub-acute repeat dose toxicity; sprague dawley; Injection; Intravenous; dose end: 5 day; group: systemic; systemic / in life observation / clinical signs / drooping eyelids (ptosis) + systemic / in life observation / clinical signs / reduced …
rat [15] = conditions: Sub-acute repeat dose toxicity; sprague dawley; Injection; Intravenous; dose end: 4 day; group: systemic; systemic / in life observation / clinical signs / drooping eyelids (ptosis) + systemic / in life observation / clinical signs / external …
[16] = systemic / pathology microscopic / liver / carcinoma + systemic / pathology microscopic / liver / neoplastic nodule + systemic / pathology …
[17] = systemic / pathology microscopic / thyroid gland / adenoma
[18] = systemic / in life observation / body weight / body weight + systemic / in life observation / clinical signs / salivation + systemic / in …
[19] = systemic / in life observation / body weight / body weight + systemic / pathology microscopic / kidney / vacuolization cytoplasmic + …
[20] = group: systemic, systemic / hematology / polychromasia / polychromasia + systemic / in life observation / body weight / body weight + systemic / in life …
[21] = group: systemic, systemic / pathology microscopic / ovary / degeneration
[22] = systemic / clinical chemistry / bilirubin / total bilirubin + systemic / hematology / anisocytosis / anisocytosis + systemic / hematology / …
[23] = systemic / clinical chemistry / glucose / glucose
[24] = systemic / clinical chemistry / alpha-2 globulin / alpha-2 globulin
[25] = systemic / clinical chemistry / alpha-2 globulin / alpha-2 globulin + systemic / hematology / platelet / platelet + systemic / organ weight…
[26] = systemic / hematology / platelet / platelet + systemic / organ weight / liver / relative to body weight + systemic / pathology microscopic…
[27] = systemic / pathology microscopic / adrenal gland / pheochromocytoma benign + systemic / pathology microscopic / adrenal gland / …
[28] = group: offspring, developmental / offspring survival late / viability index / viability index + systemic / in life observation / body weight / offspring (pup…
[29] = group: parental, systemic / clinical chemistry / alpha-2 globulin / alpha-2 globulin + systemic / organ weight / kidney / absolute + systemic / organ weight…
[30] = systemic / clinical chemistry / [other] / [other] + systemic / in life observation / body weight / body weight gain
[31] = systemic / organ weight / kidney / absolute + systemic / organ weight / kidney / relative to body weight + systemic / organ weight / kidney…
[32] = group: developmental, developmental / developmental malformation / bone / full supernumerary + developmental / developmental malformation / general / [other]
[33] = group: maternal, systemic / in life observation / body weight / body weight gain + systemic / in life observation / food consumption / food consumption
[34] = group: maternal, systemic / in life observation / body weight / body weight gain + systemic / in life observation / food consumption / food consumption + …
[35] = systemic / clinical chemistry / bile acids / bile acids
[36] = systemic / clinical chemistry / bile acids / bile acids + systemic / pathology microscopic / gallbladder / hyperplasia + systemic / …

For `Clc1cc2c(cc1Cl)Oc1cc(Cl)c(Cl)cc1O2` [2,3,7,8-Tetrachlorodibenzo-p-dioxin], which LOAEL (rat [1]; [16]) is on record?
The LOAEL was > 0.0005 mg/kg/day.

What about the NOAEL (rat [1]; [16]) of the same compound?
Its NOAEL is ≥ 0.0005 mg/kg/day.

What about the LEL (rat [1]; [17]) of the same compound?
The LEL was 1e-05 mg/kg/day.

What about the NEL (rat [1]; [17]) of the same compound?
Its NEL is < 1e-05 mg/kg/day.

And the LEL (rat [2])?
Its LEL is 3e-06 mg/kg/day.

And the LOAEL (rat [2])?
The LOAEL was > 0.0001 mg/kg/day.

And the NEL (rat [2])?
The NEL was < 3e-06 mg/kg/day.

And the NOAEL (rat [2])?
The NOAEL was ≥ 0.0001 mg/kg/day.

With `O=C1OC(=O)c2ccccc21` [Phthalic anhydride] as the compound, how does the LEL (mouse) read?
The LEL was 1800 mg/kg/day.

What about the LOAEL (mouse) of the same compound?
The LOAEL was 1800 mg/kg/day.

And the NEL (mouse)?
Its NEL is < 1800 mg/kg/day.

What about the NOAEL (mouse) of the same compound?
Its NOAEL is < 1800 mg/kg/day.

`O=c1[nH]c2ccc(S(=O)CCN3CCC(Cc4ccc(F)cc4)CC3)cc2o1` (stereo not drawn) [Besonprodil] was tested. Which LEL (dog [3]; [18]) did it give?
Its LEL is 30 mg/kg/day.

What about the NEL (dog [3]; [18]) of the same compound?
The NEL was < 30 mg/kg/day.

And the LOAEL (dog [3]; [19])?
The LOAEL was > 300 mg/kg/day.

What about the NOAEL (dog [3]; [19]) of the same compound?
Its NOAEL is ≥ 300 mg/kg/day.

And the LEL (rat [4]; group: maternal, reproductive / reproductive performance / estrous cycle / absent corpora lutea)?
Its LEL is 200 mg/kg/day.

And the LOAEL (rat [4]; [20])?
The LOAEL was > 300 mg/kg/day.

What about the NOAEL (rat [4]; [20]) of the same compound?
Its NOAEL is ≥ 300 mg/kg/day.

What about the LEL (rat [4]; [21]) of the same compound?
Its LEL is 25 mg/kg/day.

And the NEL (rat [4]; [21])?
Its NEL is < 25 mg/kg/day.

What about the LEL (primate [5]) of the same compound?
Its LEL is 25 mg/kg/day.

What about the LOAEL (primate [5]) of the same compound?
The LOAEL was > 500 mg/kg/day.

What about the NEL (primate [5]) of the same compound?
Its NEL is < 25 mg/kg/day.

And the NOAEL (primate [5])?
The NOAEL was ≥ 500 mg/kg/day.

With `CC(O)CO` (stereo not drawn) [1,2-Propylene glycol] as the compound, how does the LOAEL (dog [6]; [22]) read?
The LOAEL was > 5000 mg/kg/day.

What about the NOAEL (dog [6]; [22]) of the same compound?
Its NOAEL is ≥ 5000 mg/kg/day.

What about the LEL (dog [6]; [23]) of the same compound?
The LEL was 2000 mg/kg/day.

What about the NEL (dog [6]; [23]) of the same compound?
The NEL was < 2000 mg/kg/day.

`ClC1C(Cl)C(Cl)C(Cl)C(Cl)C1Cl` (stereo not drawn) [Lindane] was tested. Which LEL (rat [7]; [24]) did it give?
The LEL was 0.05 mg/kg/day.

And the NEL (rat [7]; [24])?
The NEL was < 0.05 mg/kg/day.

What about the LOAEL (rat [7]; [25]) of the same compound?
Its LOAEL is 4.81 mg/kg/day.

What about the NOAEL (rat [7]; [25]) of the same compound?
The NOAEL was 0.47 mg/kg/day.

And the LOAEL (rat [8]; [26])?
The LOAEL was 4.81 mg/kg/day.

What about the NOAEL (rat [8]; [26]) of the same compound?
The NOAEL was 0.47 mg/kg/day.

What about the LEL (rat [8]; [27]) of the same compound?
Its LEL is 0.05 mg/kg/day.

What about the NEL (rat [8]; [27]) of the same compound?
Its NEL is < 0.05 mg/kg/day.

And the LEL (rat [9]; [28])?
Its LEL is 13.1 mg/kg/day.

And the LOAEL (rat [9]; [28])?
The LOAEL was 13.1 mg/kg/day.

What about the NEL (rat [9]; [28]) of the same compound?
The NEL was 1.71 mg/kg/day.

What about the NOAEL (rat [9]; [28]) of the same compound?
Its NOAEL is 1.71 mg/kg/day.

What about the LOAEL (rat [9]; group: parental, systemic / clinical chemistry / alpha-2 globulin / alpha-2 globulin) of the same compound?
The LOAEL was 1.71 mg/kg/day.

And the LEL (rat [9]; [29])?
The LEL was 1.71 mg/kg/day.

What about the NEL (rat [9]; [29]) of the same compound?
Its NEL is 0.0865 mg/kg/day.

And the NOAEL (rat [9]; [29])?
Its NOAEL is 0.0865 mg/kg/day.

What about the LEL (rat [10]; [30]) of the same compound?
The LEL was 0.01 mg/kg/day.

And the NEL (rat [10]; [30])?
Its NEL is < 0.01 mg/kg/day.

What about the LOAEL (rat [10]; [31]) of the same compound?
Its LOAEL is 1 mg/kg/day.

And the NOAEL (rat [10]; [31])?
Its NOAEL is 0.2 mg/kg/day.

And the LEL (rat [11]; [32])?
Its LEL is 20 mg/kg/day.

And the LOAEL (rat [11]; [32])?
The LOAEL was 20 mg/kg/day.

And the NEL (rat [11]; [32])?
Its NEL is 10 mg/kg/day.

And the NOAEL (rat [11]; [32])?
Its NOAEL is 10 mg/kg/day.

What about the LEL (rat [11]; [33]) of the same compound?
The LEL was 10 mg/kg/day.

What about the LOAEL (rat [11]; [33]) of the same compound?
Its LOAEL is 10 mg/kg/day.

And the NEL (rat [11]; [34])?
The NEL was 5 mg/kg/day.

And the NOAEL (rat [11]; [34])?
Its NOAEL is 5 mg/kg/day.

`CNC(=O)[C@H]1O[C@@H](n2cnc3c(NCc4cc(Cl)ccc4OCc4cc(C)no4)ncnc32)[C@H](O)[C@@H]1N` was tested. Which LEL (primate [12]) did it give?
Its LEL is 40 mg/kg/day.

What about the LOAEL (primate [12]) of the same compound?
The LOAEL was > 40 mg/kg/day.

And the NEL (primate [12])?
Its NEL is 15 mg/kg/day.

What about the NOAEL (primate [12]) of the same compound?
The NOAEL was ≥ 40 mg/kg/day.

And the LEL (dog [13]; [35])?
The LEL was 3 mg/kg/day.

And the NEL (dog [13]; [35])?
The NEL was < 3 mg/kg/day.

And the LOAEL (dog [13]; [36])?
Its LOAEL is > 30 mg/kg/day.

And the NOAEL (dog [13]; [36])?
Its NOAEL is ≥ 30 mg/kg/day.

And the LEL (rat [14])?
The LEL was 5 mg/kg/day.

What about the LOAEL (rat [14]) of the same compound?
The LOAEL was > 150 mg/kg/day.

And the NEL (rat [14])?
The NEL was < 5 mg/kg/day.

And the NOAEL (rat [14])?
Its NOAEL is ≥ 150 mg/kg/day.

What about the LEL (rat [15]) of the same compound?
Its LEL is 5 mg/kg/day.

What about the LOAEL (rat [15]) of the same compound?
The LOAEL was > 5 mg/kg/day.

What about the NEL (rat [15]) of the same compound?
Its NEL is < 5 mg/kg/day.

What about the NOAEL (rat [15]) of the same compound?
Its NOAEL is ≥ 5 mg/kg/day.
